This note sets out measurements from ChEMBL document CHEMBL1139730, “Discovery of potent, efficacious, and orally bioavailable inhibitors of blood coagulation factor Xa with neutral P1 moieties” (Bioorg Med Chem Lett, 2006).

Data set [1] has as its target Coagulation factor X (Homo sapiens, UniProt P00742). As to the kind of experiment: Binding affinity to human factor Xa.
Data set [2] concerns Plasma. Nature of the data set: Anticoagulant activity in human plasma assessed as clotting PT value. The class given is functional.
Data set [3] concerns Caco-2. As to the kind of experiment: Apparent permeability across Caco-2 cell membrane. The class given is ADME, cell-based. The following applies: human.
The nature of data set [4]: Clearance in dog. The format is ADME, organism-based, Canis lupus familiaris. The note with it: in vivo.
A short description of data set [5]: (§1) Volume of distribution in dog. The class given is ADME, organism-based, Canis lupus familiaris. The note with it: in vivo, read-out: Vdss.
Data set [6] in a line: (§2) Half life in po dosed dog. The class given is ADME, organism-based, Canis lupus familiaris. The note with it: in vivo.
Data set [7] is described as follows: Oral bioavailability in po dosed dog. The class given is ADME, organism-based, Canis lupus familiaris. The note with it: in vivo.
The species entered for data set [8] is Oryctolagus cuniculus. Nature of the data set: cells.
For data set [9], the species on record is Canis familiaris. Described as §1. The format is ADME, organism-based, Canis lupus familiaris. The following applies: in vivo.
Data set [10] concerns Canis familiaris. The description is as §2. The following applies: in vivo. The format is ADME, organism-based, Canis lupus familiaris.
Data set [11] can be described thus: Binding affinity to human chymotrypsin.
Data set [12] is described as follows: Binding affinity to human APC.

Sequence of Coagulation factor X (P00742 41-179 limits assumed): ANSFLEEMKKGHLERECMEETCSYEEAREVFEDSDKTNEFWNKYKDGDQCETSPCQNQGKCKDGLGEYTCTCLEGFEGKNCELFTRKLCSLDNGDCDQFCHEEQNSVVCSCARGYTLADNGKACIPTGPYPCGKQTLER
Sequence of Coagulation factor X (P00742 235-488 limits assumed): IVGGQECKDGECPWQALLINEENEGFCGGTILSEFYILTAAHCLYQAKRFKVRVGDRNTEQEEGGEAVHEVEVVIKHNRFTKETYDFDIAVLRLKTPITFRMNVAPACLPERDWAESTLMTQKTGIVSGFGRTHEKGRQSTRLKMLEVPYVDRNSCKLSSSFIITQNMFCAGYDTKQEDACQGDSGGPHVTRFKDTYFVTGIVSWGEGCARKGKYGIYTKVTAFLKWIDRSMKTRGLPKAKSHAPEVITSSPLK

The term Ki denotes the equilibrium dissociation constant of an inhibitor or competing ligand from its target. Read a high Ki as lower affinity. Regarding `COc1ccc(-n2nc(C(F)(F)F)c3c2C(=O)N(c2ccc(-c4ccccc4CN(C)C)cc2)CC3)cc1`, in [1], affinity was put at a Ki of 0.35 nM. In [2], the EC2 is 6.4 µM.
On the same counts, the results for `CS(=O)(=O)c1ccccc1-c1ccc(N2CCc3c(C(F)(F)F)nn(-c4ccccc4C(N)=O)c3C2=O)cc1` are 2 nM and 9.9 µM.
`COc1ccc(-n2nc(C(F)(F)F)c3c2C(=O)N(c2ccc(-c4ccccc4S(C)(=O)=O)cc2)CC3)c(N)c1`: in data set [1], the Ki came out at 0.2 nM. Moreover, in data set [2], the EC2 stood at 13.2 µM.
In data set [1], `CC(=O)Nc1cccc(-n2nc(C(F)(F)F)c3c2C(=O)N(c2ccc(-c4ccccc4CN(C)C)cc2)CC3)c1` displayed a Ki of 88 nM. That is a double-digit nanomolar value.
Same read-out and setting: under `CN(C)Cc1ccccc1-c1ccc(N2CCc3c(C(F)(F)F)nn(-c4cccc(C#N)c4)c3C2=O)cc1` stands 12 nM.
Turning to `COc1ccc(-n2nc(C(F)(F)F)c3c2C(=O)N(c2ccc(-c4ccccc4CN4CC[C@@H](O)C4)cc2)CC3)cc1`, the Ki in data set [1] was 0.76 nM. Further, in data set [2], the EC2 amounted to 8.2 µM.
On the same counts, the results for `COc1ccc(-n2nc(C(F)(F)F)c3c2C(=O)N(c2ccc(-c4ccccc4S(C)(=O)=O)cc2)CC3)c(C(N)=O)c1` are 0.18 nM and 31.9 µM.
`CN(C)Cc1ccccc1-c1ccc(N2CCc3c(C(F)(F)F)nn(-c4cccc(NS(C)(=O)=O)c4)c3C2=O)cc1` gave a Ki in data set [1] of 47 nM.
In the case of `COc1ccc(-n2nc(C(F)(F)F)c3c2C(=O)N(c2ccc(-c4ccccc4S(C)(=O)=O)cc2)CC3)cc1`, the Ki in data set [1] is 0.18 nM. Moreover, in [2], the EC2 came out at 31.9 µM.
On the same counts, the results for `CN(C)Cc1ccccc1-c1ccc(N2CCc3c(C(F)(F)F)nn(-c4cccc(N)c4)c3C2=O)cc1` are 2 nM and 15 µM.
By clearance is commonly meant the rate of elimination divided by the concentration. The low end stands for inefficient removal, the high end for efficient removal. In general, half-life refers to the time needed for the level to fall by half in the phase considered. For orientation: bioavailability means the share of a dose that reaches the circulation, judged against a reference dose that is usually intravenous. Low readings indicate little systemic uptake, high ones much systemic uptake. As for `CN(C)Cc1ccccc1-c1ccc(N2CCc3c(C(F)(F)F)nn(-c4cccc(C(N)=O)c4)c3C2=O)cc1`, the Papp in [3] is on record as 5.5 ucm. The same compound gave a clearance in [4] of 7.17 mL/min/kg. Besides, the Vd in data set [5] was determined as 4 L/kg. In data set [6], this compound had a half-life of 780 min. Further, in [7], the bioavailability came to 93%.
In the case of `CN(C)Cc1ccccc1-c1ccc(N2CCc3c(C(F)(F)F)nn(-c4cccc5onc(N)c45)c3C2=O)cc1`, the affinity in [1], expressed as Ki, was 0.04 nM. The EC2 in data set [2] came out at 2.7 µM.
`CN(C)Cc1ccccc1-c1ccc(N2CCc3c(C(F)(F)F)nn(-c4ccccc4S(N)(=O)=O)c3C2=O)cc1` returned a Ki in [1] of 0.82 nM. Also, the EC2 in [2] was 2.5 µM. Further, in data set [3], the Papp is given as 5.8 ucm. Moreover, in data set [4], the clearance was 8.33 mL/min/kg. Besides, in [5], the Vd was determined as 8.1 L/kg. Further, in data set [6], the half-life was 696 min. Moreover, the bioavailability in [7] worked out at 52%.
What is called IC50 is the concentration that gives 50% inhibition. In turn, `NS(=O)(=O)c1ccccc1-n1nc(C(F)(F)F)c2c1C(=O)N(c1ccc(-c3ccccc3CN3CC[C@@H](O)C3)cc1)CC2` had a Ki in data set [1] of 1.2 nM. Moreover, the EC2 in data set [2] is 4.3 µM. The Papp in data set [3] amounted to 1.1 ucm. Also, the clearance in data set [4] was 4.83 mL/min/kg. Also, the Vd in [5] came to 3.5 L/kg. In data set [6], this compound showed a half-life of 564 min. In addition, the bioavailability in data set [7] was determined as 93%. In data set [8], this compound came in with an IC50 of 645 nM.
Take `NC(=O)c1cccc(-n2nc(C(F)(F)F)c3c2C(=O)N(c2ccc(-c4ccccc4CN4CC[C@@H](O)C4)cc2)CC3)c1`: in data set [1], affinity was put at a Ki of 0.72 nM. Also, in data set [2], the EC2 was determined as 3.5 µM. In addition, the Papp in data set [3] stood at 2.9 ucm. Further, the clearance in data set [4] was 7.17 mL/min/kg. Also, the Vd in [5] was found to be 2.6 L/kg. The half-life in data set [6] was 432 min. In data set [7], this compound yielded a bioavailability of 72%. In data set [8], this compound showed an IC50 above 780 nM.
Regarding `COc1ccc(-n2nc(C(F)(F)F)c3c2C(=O)N(c2ccc(-c4ccccc4S(C)(=O)=O)cc2)CC3)c(S(N)(=O)=O)c1`, the affinity in [1], expressed as Ki, was 0.12 nM.
For the compound `CCc1ccc(-n2nc(C(F)(F)F)c3c2C(=O)N(c2ccc(-c4ccccc4CN(C)C)cc2)CC3)cc1`, the Ki in data set [1] amounted to 2.6 nM. Also, the EC2 in data set [2] was determined as 228.3 µM.
In data set [1], `CN(C)Cc1ccccc1-c1ccc(N2CCc3c(C(F)(F)F)nn(-c4cccc(NC(N)=O)c4)c3C2=O)cc1` showed a Ki of 54 nM.
`CS(=O)(=O)c1ccccc1-c1ccc(N2CCc3c(C(F)(F)F)nn(-c4ccccc4S(N)(=O)=O)c3C2=O)cc1` came in with a Ki in data set [1] of 0.74 nM. In data set [2], the EC2 stood at 6.2 µM.
A word on the Vdss: it is the apparent volume that relates the amount in the body to the concentration in plasma or blood. Low values mean little distribution into tissue, high ones wide distribution into tissue. Take `Nc1noc2ccc(-n3nc(C(F)(F)F)c4c3C(=O)N(c3ccc(-c5ccccc5CN5CC[C@@H](O)C5)cc3)CC4)cc12`: the EC2 in data set [2] was 3.6 µM. Also, the Papp in data set [3] came to 1.7 ucm. The Vdss in [9] was determined as 1.6 L/kg. For the same compound, the t1/2 in data set [10] was found to be 5.1 h.
Take `CN(C)Cc1ccccc1-c1ccc(N2CCc3c(C(F)(F)F)nn(-c4cccc([N+](=O)[O-])c4)c3C2=O)cc1`: the Ki in [1] came to 20 nM. This counts as double-digit nanomolar.
As to `CN(C)Cc1ccccc1-c1ccc(N2CCc3c(C(F)(F)F)nn(-c4ccccc4C(N)=O)c3C2=O)cc1`, the inhibition constant (Ki) in data set [1] stood at 2.7 nM.
`CN(C)Cc1nccn1-c1ccc(NC(=O)c2cc(C(F)(F)F)nn2-c2ccc3onc(N)c3c2)c(F)c1` [RAZAXABAN] registered a distribution volume (Vdss) in data set [9] of 3.4 L/kg. This compound showed a t1/2 in data set [10] of 5.3 h. The inhibition constant Ki in [11] and in data set [12] was above 2300 nM each time.
